US8791102B2, “Acetanilide sphingosine-1-phosphate receptor antagonists” (Exelixis, Inc., priority 2008, dated 2014)

Target: T1, human S1P1 receptors (Homo sapiens, UniProt P21453)
T1 construct: host or cells: HEK293
Assay: S1P1R antagonist assay (fluorescent membrane potential dye, cAMP readout)
Assay type: cell-based
Conditions: HEK293 cells expressing human S1P1 receptors and CNG channel; 500 nM NECA; S1P1R agonist 10 nM; 90 minutes; read-out: EC50 or IC50 value

T1 sequence (P21453 whole entry): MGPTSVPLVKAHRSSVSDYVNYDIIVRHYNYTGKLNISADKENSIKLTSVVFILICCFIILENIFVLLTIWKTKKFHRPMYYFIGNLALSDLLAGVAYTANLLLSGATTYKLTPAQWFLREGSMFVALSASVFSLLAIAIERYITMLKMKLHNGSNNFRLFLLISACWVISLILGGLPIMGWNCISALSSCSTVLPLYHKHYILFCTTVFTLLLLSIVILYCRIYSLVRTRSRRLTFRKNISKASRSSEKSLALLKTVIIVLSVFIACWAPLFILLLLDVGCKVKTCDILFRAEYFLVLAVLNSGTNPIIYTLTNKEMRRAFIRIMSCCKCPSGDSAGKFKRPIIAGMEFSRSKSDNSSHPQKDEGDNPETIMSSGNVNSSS

IC50, ≤ 0.3 µM:
O=C(Cn1cncn1)N[C@@H](COCc1ccccc1OC(F)(F)F)C(=O)Nc1ccc(Oc2ccc(F)cc2)cc1 [Compound 139, (S)-2-(2-(1H-1,2,4-triazol-1-yl)acetamido)-N-(4-(4-fluorophenoxy)phenyl)-3-(2-(trifluoromethoxy)benzyloxy)propanamide]
O=C(Nc1ccc(Oc2ccc(F)cc2)cc1)[C@@H]1C[C@@H](Cc2ccccc2)CN1C(=O)Cn1cncn1 [Compound 140, (2S,4R)-1-(2-(1H-1,2,4-triazol-1-yl)acetyl)-4-benzyl-N-(4-(4-fluorophenoxy)phenyl)pyrrolidine-2-carboxamide]
O=C(Nc1ccc(Oc2ccc(F)cc2)cc1)[C@@H]1C[C@@H](Cc2ccc(F)cc2)CN1C(=O)Cn1cncn1 [Compound 141, (2S,4R)-1-(2-(1H-1,2,4-triazol-1-yl)acetyl)-4-(4-fluorobenzyl)-N-(4-(4-fluorophenoxy)phenyl)pyrrolidine-2-carboxamide]
O=C(Cc1cnc[nH]1)NC(COCc1ccccc1)C(=O)Nc1ccc(Oc2ccccc2)cc1 (stereo not shown) [Compound 142, 2-(2-(1H-imidazol-5-yl)acetamido)-3-benzyloxy-N-(4-phenoxyphenyl)propanamide]
O=C(Cc1cnc[nH]1)N[C@@H](COCc1ccccc1)C(=O)Nc1ccc(Oc2ccccc2)cc1 [Compound 143, (S)-2-(2-(1H-imidazol-5-yl)acetamido)-3-benzyloxy-N-(4-phenoxyphenyl)propanamide]
O=C(Cn1cnnn1)N[C@@H](COCc1ccccc1)C(=O)Nc1ccc(Oc2ccccc2)cc1 [Compound 144, (S)-2-(2-(1H-tetrazol-1-yl)acetamido)-3-benzyloxy-N-(4-phenoxyphenyl)propanamide]
O=C(Cc1cnc[nH]1)N[C@@H](COCc1ccccc1)C(=O)Nc1ccc(Oc2ccc(Cl)cc2)cc1 [Compound 145, (S)-2-(2-(1H-imidazol-5-yl)acetamido)-3-benzyloxy-N-(4-(4-chlorophenoxy)phenyl)propanamide]
O=C(Cn1cncn1)N[C@@H](COCc1ccccc1)C(=O)Nc1ccc(Oc2ccccc2)cc1 [Compound 146, (S)-2-(2-(1H-1,2,4-triazol-1-yl)acetamido)-3-(benzyloxy)-N-(4-phenoxyphenyl)propanamide]
O=C(Cc1cnc[nH]1)N[C@@H](COCc1ccccc1)C(=O)Nc1ccc(Oc2ccccc2)c(Cl)c1 [Compound 147, (S)-2-(2-(1H-imidazol-4-yl)acetamido)-3-(benzyloxy)-N-(3-chloro-4-phenoxyphenyl)propanamide]
O=C(Cc1cnc[nH]1)N[C@@H](COCc1ccccc1)C(=O)Nc1ccc(Oc2cccc(Cl)c2)cc1 [Compound 148, (S)-2-(2-(1H-imidazol-4-yl)acetamido)-3-(benzyloxy)-N-(4-(3-chlorophenoxy)phenyl)propanamide]
O=C(Cn1cncn1)N[C@@H](COCc1ccccc1)C(=O)Nc1ccc(Oc2ccc(F)cc2)cc1 [Compound 149, (S)-2-(2-(1H-1,2,4-triazol-1-yl)acetamido)-3-benzyloxy-N-(4-(4-fluorophenoxy)phenyl)propanamide]
Cc1noc(C)c1CC(=O)N[C@@H](COCc1ccccc1)C(=O)Nc1ccc(Oc2ccc(F)cc2)cc1 [Compound 150, (S)-3-(benzyloxy)-2-(2-(3,5-dimethylisoxazol-4-yl)acetamido)-N-(4-(4-fluorophenoxy)phenyl)propanamide]
O=C(Cn1nnc2ccccc21)N[C@@H](COCc1ccccc1)C(=O)Nc1ccc(Oc2ccc(F)cc2)cc1 [Compound 151, (S)-2-(2-(1H-benzo[d][1,2,3]triazol-1-yl)acetamido)-3-(benzyloxy)-N-(4-(4-fluorophenoxy)phenyl)propanamide]
Cc1n[nH]c(C)c1CC(=O)N[C@@H](COCc1ccccc1)C(=O)Nc1ccc(Oc2ccc(F)cc2)cc1 [Compound 152, (S)-3-(benzyloxy)-2-(2-(3,5-dimethyl-1H-pyrazol-4-yl)acetamido)-N-(4-(4-fluorophenoxy)phenyl)propanamide]
Cc1cn(CC(=O)N[C@@H](COCc2ccccc2)C(=O)Nc2ccc(Oc3ccc(F)cc3)cc2)nn1 [Compound 153, (S)-3-(benzyloxy)-N-(4-(4-fluorophenoxy)phenyl)-2-(2-(4-methyl-1H-1,2,3-triazol-1-yl)acetamido)propanamide]
O=C(Cc1cnc[nH]1)N[C@@H](COCc1ccccc1)C(=O)Nc1ccc(Oc2ccc(Cl)cc2)c(Cl)c1 [Compound 154, (S)-2-(2-(1H-imidazol-4-yl)acetamido)-3-(benzyloxy)-N-(3-chloro-4-(4-chlorophenoxy)phenyl)propanamide]
O=C(CN1CCOCC1)N[C@@H](COCc1ccccc1)C(=O)Nc1ccc(Oc2ccc(F)cc2)cc1 [Compound 155, (S)-3-(benzyloxy)-N-(4-(4-fluorophenoxy)phenyl)-2-(2-morpholinoacetamido)propanamide]
O=C(Cc1c[nH]cn1)N[C@@H](COCc1ccccc1)C(=O)Nc1ccc(Oc2ncc(Br)s2)cc1 [Compound 156, (S)-2-(2-(1H-imidazol-4-yl)acetamido)-3-(benzyloxy)-N-(4-(5-bromothiazol-2-yloxy)phenyl)propanamide]
O=C(Cc1cnc[nH]1)N[C@@H](CCc1ccccc1)C(=O)Nc1ccc(Oc2ccc(Cl)cc2)cc1 [Compound 157, (S)-2-(2-(1H-imidazol-5-yl)acetamido)-N-(4-(4-chlorophenoxy)phenyl)-4-phenylbutanamide]
Cc1ccc(Oc2ccc(NC(=O)[C@H](COCc3ccccc3)NC(=O)Cc3c[nH]cn3)cc2)cc1 [Compound 158, (S)-2-(2-(1H-imidazol-5-yl)acetamido)-3-(benzyloxy)-N-(4-(p-tolyloxy)phenyl)propanamide]
O=C(Cc1cnccn1)N[C@@H](COCc1ccccc1)C(=O)Nc1ccc(Oc2ccc(F)cc2)cc1 [Compound 159, (S)-3-(benzyloxy)-N-(4-(4-fluorophenoxy)phenyl)-2-(2-(pyrazin-2-yl)acetamido)propanamide]
Cc1nccn1CC(=O)N[C@@H](COCc1ccccc1)C(=O)Nc1ccc(Oc2ccc(F)cc2)cc1 [Compound 160, (S)-3-(benzyloxy)-N-(4-(4-fluorophenoxy)phenyl)-2-(2-(2-methyl-1H-imidazol-1-yl)acetamido)propanamide]
CC(C)(C(=O)N[C@@H](COCc1ccc(F)cc1)C(=O)Nc1ccc(Oc2ccc(F)cc2)cc1)c1c[nH]cn1 [Compound 161, (S)-2-(2-(1H-imidazol-4-yl)-2-methylpropanamido)-3-(4-fluorobenzyloxy)-N-(4-(4-fluorophenoxy)phenyl)propanamide]
Cc1nc(CC(=O)N[C@@H](COCc2ccccc2)C(=O)Nc2ccc(Oc3ccc(F)cc3)cc2)c[nH]1 [Compound 162, (S)-3-(benzyloxy)-N-(4-(4-fluorophenoxy)phenyl)-2-(2-(2-methyl-1H-imidazol-4-yl)acetamido)propanamide]
CC(=O)N[C@@H](COCc1ccc(F)cc1)C(=O)Nc1ccc(Oc2ccc(F)cc2)cc1 [Compound 164, (S)-2-acetamido-3-(4-fluorobenzyloxy)-N-(4-(4-fluorophenoxy)phenyl)propanamide]
O=C(Cn1cncn1)N[C@@H](CCCNC(=O)OCc1ccccc1)C(=O)Nc1ccc(Oc2ccc(F)cc2)cc1 [Compound 165, (S)-benzyl 4-(2-(1H-1,2,4-triazol-1-yl)acetamido)-5-(4-(4-fluorophenoxy)phenylamino)-5-oxopentylcarbamate]
Cc1cc(CC(=O)N[C@@H](COCc2ccccc2)C(=O)Nc2ccc(Oc3ccc(F)cc3)cc2)[nH]n1 [Compound 166, (S)-3-(benzyloxy)-N-(4-(4-fluorophenoxy)phenyl)-2-(2-(3-methyl-1H-pyrazol-5-yl)acetamido)propanamide]
CC(C(=O)N[C@@H](COCc1ccccc1)C(=O)Nc1ccc(Oc2ccc(F)cc2)cc1)c1c[nH]cn1 (stereo partly drawn) [Compound 167, (2S)-2-(2-(1H-imidazol-4-yl)propanamido)-3-(benzyloxy)-N-(4-(4-fluorophenoxy)phenyl)propanamide]
O=C(Cc1c[nH]cn1)N[C@@H](COCc1ccc(F)cc1)C(=O)Nc1ccc(Oc2ccc(Br)cc2)cc1 [Compound 168, (S)-2-(2-(1H-imidazol-5-yl)acetamido)-N-(4-(4-bromophenoxy)phenyl)-3-(4-fluorobenzyloxy)propanamide]
O=C(Nc1ccc(Oc2ccc(F)cc2)cc1)[C@@H]1C[C@@H](Cc2c(F)cc(F)cc2F)CN1C(=O)Cn1nccn1 [Compound 169, (2S,4R)-1-(2-(2H-1,2,3-triazol-2-yl)acetyl)-N-(4-(4-fluorophenoxy)phenyl)-4-(2,4,6-trifluorobenzyl)pyrrolidine-2-carboxamide]
O=C(Nc1ccc(Oc2ccc(F)cc2)cc1)[C@@H]1C[C@@H](Cc2c(F)cc(F)cc2F)CN1C(=O)Cn1ccnn1 [Compound 170, (2S,4R)-1-(2-(1H-1,2,3-triazol-1-yl)acetyl)-N-(4-(4-fluorophenoxy)phenyl)-4-(2,4,6-trifluorobenzyl)pyrrolidine-2-carboxamide]
Cc1cccc(C[C@@H]2C[C@@H](C(=O)Nc3ccc(Oc4ccc(F)cc4)cc3)N(C(=O)Cn3cncn3)C2)c1 [Compound 171, (2S,4R)-1-(2-(1H-1,2,4-triazol-1-yl)acetyl)-N-(4-(4-fluorophenoxy)phenyl)-4-(3-methylbenzyl)pyrrolidine-2-carboxamide]
Cc1noc(C)c1NC(=O)N[C@@H](COCc1ccccc1)C(=O)Nc1ccc(Oc2ccc(F)cc2)cc1 [Compound 172, (S)-2-(3-(3,5-dimethylisoxazol-4-yl)ureido)-3-benzyloxy-N-(4-(4-fluorophenoxy)phenyl)propanamide]
O=C(Nc1ccc(Oc2ccc(F)cc2)cc1)[C@@H]1C[C@@H](NCc2ccccc2)CN1C(=O)Cc1cnc[nH]1 [Compound 173, (2S,4R)-1-(2-(1H-imidazol-5-yl)acetyl)-4-(benzylamino)-N-(4-(4-fluorophenoxy)phenyl)pyrrolidine-2-carboxamide]
